{
  "source": "patent US9018216B2",
  "about": "“Solid forms of (R)-2-(5-(2-(3-ethylureido)-6-fluoro-7-(tetrahydrofuran-2-yl)-1H-benzo[d]imidazol-5-yl)pyrimidin-2-yl)propan-2-yl dihydrogen phosphate and salts thereof” (priority 2012, dated 2015)",
  "key": {"[1]": {"experiment": "Rat IV pharmacokinetic study", "details": "D5W, plasma analyte"}, "[2]": {"experiment": "Monkey oral pharmacokinetic study", "type": "in vivo, cynomolgus monkeys", "details": "0.5% MC, plasma analyte", "text": "(§1) Plasma concentration vs. time data was subjected to noncompartmental pharmacokinetic (PK) analysis."}, "[3]": {"test_system": "M. tuberculosis ATCC 35801 (strain Erdman)", "experiment": "Mouse M. tuberculosis (Erdman) 28 day lung infection model", "type": "in vivo, M. tuberculosis; host Balb/c mice", "details": "28 days; for Log Reduction vs. Early Control / Median Lung Burden / Log Reduction vs. Late Control: Table 23b"}, "[4]": {"experiment": "Rat oral pharmacokinetic study", "type": "in vivo, Sprague Dawley rats", "details": "plasma analyte; for AUC: male, Sprague Dawley, plasma, po, read-out: AUCextrap", "text": "as §1"}, "[5]": {"experiment": "Monkey IV pharmacokinetic study", "details": "Compound W IV 5 mg/kg, D5W, plasma analyte", "protocol": "Animals had free access to food and water before and after dosing.\nBlood samples (approximately 0.25 mL each) were collected via a carotid artery catheter prior to dosing and at 0 (predose), 5 min, 10 min, 0.25, 0.5, 1, 2, 3, 4, 6, 8, 12, 24, 48 hours postdose. Each blood sample was collected into a tube that was kept on wet ice and contained potassium EDTA as the anticoagulant. Plasma was separated and stored at approximately −70° C. until analysis.\nPlasma concentration vs. time data were subjected to noncompartmental pharmacokinetic (PK) analysis."}, "[6]": {"experiment": "Pharmacokinetic studies: in vivo conversion of prodrug", "details": "in at least rats, dogs and monkeys", "description": "The pharmacokinetic parameters of selected compounds of this invention were determined in the experiments described below. General analytic procedures and specific experimental protocols were employed as follows: […]"}, "[7]": {"experiment": "Stability of the solid forms (net increase in total impurities at 40 C/30% RH)", "type": "physicochemical", "details": "17 days"}, "[8]": {"test_system": "Escherichia coli AG100", "experiment": "Gyrase MIC determination against Gram negatives using microdilution broth method (Protocol 2)", "type": "cell-based", "details": "read-out: MIC", "description": "Compounds of this invention were tested for antimicrobial activity by susceptibility testing in liquid media. […] The specific protocols used were as follows:\nProtocol 2: Gyrase MIC Determination of Compounds Against Gram Negatives Using Microdilution Broth Method\nStrains (MHII Media for all; Broth and Agar): • 1. Escherichia coli AG100 WT • 2. Escherichia coli AG100 tolC • 3. […] Haemophilus influenzae Rd0894 (AcrA−)\nInoculum Prep: • 1. Using the BBL Prompt kit, picked 5 big or 10 small, well separated colonies from cultures grown on agar medium and inoculated 1 mL sterile saline that came with the kit. • 2. Vortexed the wells for ˜30 s to give a suspension of ˜10^8 cells/mL. Actual density could be confirmed by plating out dilutions of this suspension. • 3. Diluted the suspension 1/100 by transferring 0.15 mL of cells into 15 mL (˜10^6 cells/mL) sterile broth (see below) for each plate of compounds tested, swirled to mix. […] Used 50 μl cells (˜5×10^4 cells) to inoculate each microtiter well containing 50 μl of the drug diluted in broth (see below).\nDrug Dilutions, Inoculation, MIC Determination: • 1. […] Diluted drug/compound stocks to 200× desired final concentration in 50 μL DMSO. If starting concentration of MICs was 8 μg/mL final concentration, then required 6.25 μL of stock+43.75 μL DMSO. Each 200× stock was placed in a separate row of column 1 of a new 96 well microtiter plate. • 3. Added 25 μL of DMSO to columns 2-12 of all rows of the microtiter plate containing 200× compound stocks and serially diluted 25 μL from column 1 through column 11, changed tips after each column. i.e. 25 μL compound+25 μL DMSO=2× dilution. Left “no compound” DMSO well at the end of the series for control. • 4. For each strain tested, prepared two microtiter plates with 50 μL of MHII broth using a Matrix pipettor. • 5. Transferred 0.5 μL of each dilution (w/Matrix auto-pipettor) to 50 μL of medium/microtiter well prior to the addition of 50 μl of cells. The usual starting concentration of compound was 8 μg/mL after the 1/200 dilution into medium+cells−compound concentrations decreased in 2× steps across the rows of a microtiter plate. All MICs were done in duplicate. • 6. All wells were inoculated with 50 μl of diluted cell suspension (see above) to a final volume of 100 μl. • 7. After inoculum was added, each well was mixed thoroughly with a manual multichannel pipettor; same tips were used going from low to high concentration of drug in the same microtiter plate. • 8. Plates were incubated at 37° C. for at least 18 hours. • 9.\nExamined the test plates after the correct incubation time and read the MIC endpoint at the concentration where a marked reduction occurred in the appearance of growth on the test plate as compared to that of growth on the positive control plates."}, "[9]": {"test_system": "Enterococcus faecalis ATCC 29212", "experiment": "Gyrase MIC determination using microdilution broth method (Protocol 1)", "type": "cell-based", "details": "Enterococcus faecalis, ATCC29212, Enterococcus faecalis ATCC 29212, with 3% Laked Horse Blood, read-out: MIC"}, "[10]": {"test_system": "Staphylococcus aureus ATCC 29213", "experiment": "microbe, parasite or virus in culture", "type": "cell-based", "details": "Staphylococcus aureus, Protocol 1"}, "[11]": {"test_system": "Streptococcus pneumoniae ATCC 10015", "experiment": "Gyrase MIC determination using microdilution broth method (Protocol 1)", "type": "cell-based", "details": "ATCC10015, Streptococcus pneumoniae ATCC 10015, with 3% Laked Horse Blood"}, "[12]": {"test_system": "Enterococcus faecium ATCC 49624", "experiment": "Gyrase MIC determination using microdilution broth method (Protocol 1)", "type": "cell-based", "details": "ATCC49624, Enterococcus faecium ATCC 49624 with 3% Laked Horse Blood, read-out: MIC"}},
  "note": "Where “and” joins values, the source holds several entries; their conditions need not be identical. Equal entries are not always repeated. Where two headings read alike, the source gives them in different places.",
  "data": [
    {"smiles": "CCNC(=O)Nc1nc2cc(-c3cnc(C(C)(C)OP(=O)([O-])[O-])nc3)c(F)c([C@H]3CCCO3)c2[nH]1.[Na+].[Na+]", "note": "[Compound W, disodium (R)-2-(5-(2-(3-ethylureido)-6-fluoro-7-(tetrahydrofuran-2-yl)-1H-benzo[d]imidazol-5-yl)pyrimidin-2-yl)propan-2-yl phosphate]", "values": [
      {"measurement": "AUCextrap", "setting": "[1]; Compound W IV 1 mg/kg", "result": 0.419, "unit": "µg·h/mL"},
      {"measurement": "Cl_obs", "setting": "[1]; Compound W IV 1 mg/kg", "result": 2.8, "unit": "L/h/kg"},
      {"measurement": "Cmax/C0", "setting": "[1]; Compound W IV 1 mg/kg", "result": 4.8, "unit": "µg/mL"},
      {"measurement": "Vss_obs", "setting": "[1]; Compound W IV 1 mg/kg", "result": 0.38, "unit": "L/kg"},
      {"measurement": "AUCextrap", "setting": "[1]; Compound W IV 5 mg/kg", "result": 1.12, "unit": "µg·h/mL"},
      {"measurement": "Cl_obs", "setting": "[1]; Compound W IV 5 mg/kg", "result": 5.08, "unit": "L/h/kg"},
      {"measurement": "Cmax/C0", "setting": "[1]; Compound W IV 5 mg/kg", "result": 9.03, "unit": "µg/mL"},
      {"measurement": "Vss_obs", "setting": "[1]; Compound W IV 5 mg/kg", "result": 5.8, "unit": "L/kg"},
      {"measurement": "AUCextrap", "setting": "[2]; Compound W PO 100 mg/kg", "result": 0.437, "unit": "µg·h/mL"},
      {"measurement": "t1/2", "setting": "[2]; Compound W PO 100 mg/kg", "result": 5.31, "unit": "h"},
      {"measurement": "t1/2", "setting": "[2]; Compound W PO 300 mg/kg", "result": 13.15, "unit": "h"},
      {"measurement": "Log Reduction vs. Early Control", "setting": "[3]; 10 mg/kg BID oral gavage", "result": 0.64, "unit": "Log"},
      {"measurement": "Median Lung Burden", "setting": "[3]; 10 mg/kg BID oral gavage", "result": 4.34, "unit": "Log cfu/lungs"},
      {"measurement": "Log Reduction vs. Late Control", "setting": "[3]; 10 mg/kg BID oral gavage, phosphate", "result": 0.02, "unit": "Log"},
      {"measurement": "Log Reduction vs. Early Control", "setting": "[3]; 30 mg/kg BID oral gavage", "result": 1.98, "unit": "Log"},
      {"measurement": "Log Reduction vs. Late Control", "setting": "[3]; 30 mg/kg BID oral gavage", "result": 1.36, "unit": "Log"},
      {"measurement": "Median Lung Burden", "setting": "[3]; 30 mg/kg BID oral gavage", "result": 3.00, "unit": "Log cfu/lungs"},
      {"measurement": "Log Reduction vs. Early Control", "setting": "[3]; 100 mg/kg BID oral gavage", "result": 2.63, "unit": "Log"},
      {"measurement": "Median Lung Burden", "setting": "[3]; 100 mg/kg BID oral gavage", "result": 2.35, "unit": "Log cfu/lungs"},
      {"measurement": "Log Reduction vs. Late Control", "setting": "[3]; 100 mg/kg BID oral gavage, phosphate", "result": "2.02 Log and 2.01 Log"},
      {"measurement": "reduction of bacterial burdens versus the early control", "setting": "[3]; doses of 10, 30, and 100 mg/kg BID", "result": "0.64-2.63 logs"},
      {"measurement": "t1/2", "setting": "[4]; Compound W oral 30 mg/kg, 0.5% MC", "result": 3.1, "unit": "h"},
      {"measurement": "t1/2", "setting": "[4]; Compound W oral 100 mg/kg, 0.5% MC", "result": 7.2, "unit": "h"},
      {"measurement": "t1/2", "setting": "[4]; Compound W oral 300 mg/kg, 0.5% MC", "result": 11.3, "unit": "h"},
      {"measurement": "AUC", "setting": "[4]; 30 mg/kg, Compound W oral 30 mg/kg, 0.5% MC", "result": 0.058, "unit": "µg·h/mL"},
      {"measurement": "AUC", "setting": "[4]; 100 mg/kg, Compound W oral 100 mg/kg, 0.5% MC", "result": 0.066, "unit": "µg·h/mL"},
      {"measurement": "AUC", "setting": "[4]; 300 mg/kg, Compound W oral 300 mg/kg, 0.5% MC", "result": 0.464, "unit": "µg·h/mL"},
      {"measurement": "AUC", "setting": "[4]; 300 mg/kg, Compound W oral 300 mg/kg, 20% CAPT, 1% HPMC-AS, 1% PVP", "result": 4.27, "unit": "µg·h/mL"},
      {"measurement": "AUCextrap", "setting": "[5]", "result": 5.83, "unit": "µg·h/mL"},
      {"measurement": "t1/2", "setting": "[5]", "result": 5.35, "unit": "h"},
      {"measurement": "in vivo conversion of prodrug into parent", "setting": "[6]", "result": "converted in vivo into Compound 23"}
    ]},
    {"smiles": "CCNC(=O)Nc1nc2cc(-c3cnc(C(C)(C)OP(=O)([O-])[O-])nc3)c(F)c([C@H]3CCCO3)c2[nH]1.[Na+].[Na+]", "note": "[Form X, disodium (R)-2-(5-(2-(3-ethylureido)-6-fluoro-7-(tetrahydrofuran-2-yl)-1H-benzo[d]imidazol-5-yl)pyrimidin-2-yl)propan-2-yl phosphate]", "values": [
      {"measurement": "Net % increase in total impurities", "setting": "[7]", "result": 0.59, "unit": "%"},
      {"measurement": "MIC", "setting": "[8]; Escherichia coli AG100 WT", "result": "> 16", "unit": "mg/L"},
      {"measurement": "MIC", "setting": "[8]; Escherichia coli, AG100, Escherichia coli AG100 tolC", "result": 2, "unit": "mg/L"},
      {"measurement": "MIC", "setting": "[9]", "result": 2, "unit": "mg/L"},
      {"measurement": "MIC", "setting": "[10]; ATCC29213, Staphylococcus aureus ATCC 29213 GyrB T173I", "result": "> 16", "unit": "mg/L"},
      {"measurement": "MIC", "setting": "[10]; ATCC29213, Staphylococcus aureus ATCC 29213 with 50% Mouse Serum", "result": 2, "unit": "mg/L"},
      {"measurement": "MIC", "setting": "[11]", "result": 0.25, "unit": "mg/L"},
      {"measurement": "MIC", "setting": "[12]", "result": 4, "unit": "mg/L"}
    ]}
  ]
}
